Tests used:
[1] = tested on: spleen cells of immunized mice; assay: Splenocyte proliferation ([3H]thymidine incorporation) after in vitro restimulation with β-Gal; type: in vivo, Balb/c mice; conditions: i.n.
Method: (§1) Co-administration of β-Gal with 10 μg glycolipids 1, 5 and 6 induced a strong cellular immune responses against the β-Gal antigen in Balb/c mice. Balb/c mice were immunized by the i.n. or s.c. route with β-Gal alone or together with glycolipids 1, 5 and 6 three times at 2-wk intervals. 10 days after the final immunization, the immunized mice were sacrificed. Splenocytes of mice immunized by the i.n. (A) and s.c. (B) route were collected and cultured with different concentrations of the β-Gal-Protein for 4 days. […] Curves represent [^3H]thymidine incorporation (counts per minute, cpm) and Stimulation index (SI) in each group. Each group consists of five mice. Data are representative of three separate experiments.
as §1, with “with 20 up to 30” for “with 10”, “glycolipids” for “glycolipids 1,”, “represent [3H]thymidine incorpoaration” for “represent [^3H]thymidine incorporation”
Experimental protocol: Spleens were removed and pooled for analysis of cellular immune responses. Cells were grown in RPMI 1640 supplemented with 10% fetal calf serum, 100 U/ml of penicillin, 50 μg/ml of streptomycin, 5×10^−5 M 2-mercaptoethanol and 1 mM L-glutamine (GIBCO BRL, Karlsruhe, Germany) and maintained at 37° C. in a humidified 5% CO2 atmosphere. Spleen cell suspensions were adjusted to 5×10^6 cells/ml in complete medium, cells were seeded with 100 μl per well in a flat-bottomed 96-well microtiter plate (Nunc) and plates were incubated for 4 days. Unstimulated spleen cells were incubated in the presence of different concentrations of the new adjuvants to analyze the in vitro stimulation capacity of glycolipids 1, 5 or 6, respectively. T cellmediated immune responses were investigated at day 38 by measuring the proliferation of cells recovered from spleens after in vitro restimulation with β-Gal. Said spleen cells were obtained from vaccinated mice—said mice where immunized as described in Example 2—and incubated in the presence of different concentrations of the soluble β-Gal antigen. Each concentration was tested in triplicates. During the final 18 h of culture, 1 μCi of [^3H]thymidine (Amersham International, Freiburg, Germany) was added to each well. Cells were then harvested on paper filters (Filtermat A; Wallac, Freiburg, Germany) by using a cell harvester (Inotech, Wohlen, Switzerland), and the amount of incorporated [^3H]thymidine into the DNA of proliferating cells was determined by a β-scintillation counter (Wallac 1450, Micro-Trilux). The results are expressed as the arithmetic mean of [^3H]thymidine uptake in cpm.

[2] = tested on: IFNγ, IL-2 and IL-4 secreting splenocytes; assay: Elispot of cytokine-secreting splenocytes (IFNγ, IL-2, IL-4); type: in vivo, Balb/c mice; conditions: for spot forming units (SFU) secreting IFNγ / spot forming units (SFU) secreting IFNγ / cytokine secretion: i.n.; for spot forming units (SFU) secreting IFNγ / secretion of IFNγ, IL-2 and IL-4 (SFU) vs β-Gal alone: 10 μg glycolipid; for spot forming units (SFU) secreting IFNγ: MHC class I restricted β-Gal peptide 2 μg/ml, 24 h; for secretion of IFNγ, IL-2 and IL-4 (SFU) vs β-Gal alone / secretion of IFNγ, IL-2 and IL-4 (SFU) vs control animals: s.c. (parenteral); for spot forming units (SFU) secreting IFNγ / cytokine secretion / secretion of IFNγ, IL-2 and IL-4 (SFU) vs control animals: 20 up to 30 μg glycolipid
Method: Co-administration of β-Gal with 10 μg glycolipids 1, 5 and 6 induced a strong cellular immune responses and enhanced levels of IFNγ, IL-2 and IL-4 in response to enhanced concentration of the β-Gal antigen in Balb/c mice. Balb/c mice were immunized by the i.n. or s.c. route with β-Gal alone or together with glycolipids 1, 5 and 6 three times at 2-wk intervals. 10 days after the final immunization, the immunized mice were sacrificed. Splenocytes of mice immunized by the i.n. (FIG. 12) and s.c. (FIG. 13) route were collected and cultured with different concentrations of the antigen. A total of 5×10^6 cells/ml spleen cells were cultured with 2 μg/ml of the MHC cI.I restricted β-Gal peptide (IFNγ) for 24 h and the β-Gal-Protein (IL-2 and 4) for 48 h. IFNγ producing CD8+ T cells were analyzed using BD Elispot kit according to the manufacturer's instructions. […] Bars represent Spot forming units of 10^6 splenocytes with subtracted background mean SFU±SE in each group. Each group consists of five mice. Data are representative of three separate experiments.
Co-administration of β-Gal with 20 up to 30 μg glycolipids 5 and 6 induced strong cellular immune responses and enhanced levels of IFNγ, IL-2 and IL-4 in response to enhanced concentration of the β-Gal antigen in Balb/c mice. Balb/c mice were immunized by the i.n. or s.c. route with β-Gal alone or together with glycolipids 5 and 6 three times at 2-wk intervals. 10 days after the final immunization, the immunized mice were sacrificed. Splenocytes of mice immunized by the i.n. (FIG. 14) and s.c. (FIG. 15) route were collected and cultured with different concentrations of. A total of 5×10^6 cells/ml spleen cells were cultured with 2 μg/ml of the MHC class I restricted β-Gal peptide (IFNγ) for 24 h and the β-Gal-Protein (IL-2 and 4) for 48 h. IFNγ producing CD8+ T cells were analyzed using BD Elispot kit according to the manufacturer's instructions. […] Bars represent Spot forming units of 10^6 splenocytes with subtracted background mean SFU±SEM in each group. Each group consists of five mice. Data are representative of three separate experiments.
Experimental protocol: Spleens from vaccinated mice were removed and pooled for analysis of cellular immune responses. The protocol for vaccination was identical to the protocol described in Example 2. Cells were grown in RPMI 1640 supplemented with 10% fetal calf serum, 100 U/ml of penicillin, 50 μg/ml of streptomycin, 5×10^−5 M 2-mercaptoethanol and 1 mM L-glutamine (GIBCO BRL, Karlsruhe, Germany) and maintained at 37° C. in a humidified 5% CO2 atmosphere. Lymph node and spleen cell suspensions were adjusted to 5×10^6 cells/ml in complete medium, cells were seeded with 100 μl per well in a flat-bottomed 96-well microtiter plate (Nunc) and plates were incubated for 4 days in the presence of different concentrations of soluble β-Gal.
Splenocytes of mice immunized by the i.n. (FIG. 12) and s.c. (FIG. 13) route were collected and cultured with different concentrations of the antigen. A total of 5×10^6 cells/ml spleen cells were cultured with 2 μg/ml of the MHC cI.I restricted β-Gal peptide (IFNγ) for 24 h and the β-Gal-Protein (IL-2 and 4) for 48 h. IFNγ producing CD8+ T cells were analyzed using BD Elispot kit according to the manufacturer's instructions. […] Bars represent Spot forming units of 10^6 splenocytes with subtracted background mean SFU±SE in each group. Each group consists of five mice. Data are representative of three separate experiments.

[3] = 10 μg glycolipid, restimulation with β-Gal for 4 days

Compound | Stimulation index (SI), [3H]thymidine incorporation of spleen cells [1, 3] | spot forming units (SFU) secreting IFNγ [2] | secretion of IFNγ, IL-2 and IL-4 (SFU) vs β-Gal alone [2] | spot forming units (SFU) secreting IFNγ / cytokine secretion [2] | secretion of IFNγ, IL-2 and IL-4 (SFU) vs control animals [2] | Stimulation index (SI), [3H]thymidine incorporation of spleen cells ([1]; 20 up to 30 μg glycolipid, restimulation with β-Gal for 4 days) | Stimulation index (SI), [3H]thymidine incorporation of spleen cells ([1]; highest concentration (30 μg per animal))
CCCCCCCC/C=C\CCCCCCCCOCC(COCCCCCCCC/C=C\CCCCCCCC)O[C@@H]1O[C@H](CO)[C@@H](O[C@H]2O[C@H](CO)[C@@H](O)[C@H](O)[C@H]2O)[C@H](O)[C@H]1O (relative stereo) [glycolipid 1, 1,3-Di-O[cis-9-octadecenyl]-2-O-[4′-O-(α-D-glycopyranosyl)-β-D-glycopyranosyl]-sn-glycerol] | no effect | only a weak secretion | only weak enhanced secretion | – | – | – | –
CCCCCCCCCCCCCCOCC(COCCCCCCCCCCCCCC)O[C@@H]1O[C@H](CO)[C@@H](O[C@H]2O[C@H](CO)[C@@H](O)[C@H](O)[C@H]2O)[C@H](O)[C@H]1O [glycolipid 5, 1,3-Di-O-tetradecyl-2-O-[4′-O-(α-D-glucopyranosyl)-β-D-glucopyranosyl]-sn-glycerol] | – | enhanced expression | only weak enhanced secretion | enhanced expression | only a minor effect | – | –
CCCCCCCCCCCCCCOCC(COCCCCCCCCCCCCCC)O[C@@H]1O[C@H](CO[C@H]2O[C@H](CO)[C@H](O)[C@H](O)[C@H]2O)[C@@H](O)[C@H](O)[C@H]1O [glycolipid 6, 1,3-di-O-tetradecyl-2-O-[6′-O-(α-D-galactopyranosyl)-β-D-glucopyranosyl]-sn-glycerol] | no effect | only a weak secretion | only weak enhanced secretion | reduced cytokine secretion | only a minor effect | strong responses | > 3

— patent publication US8211463B2, “Use of glycolipids as adjuvants” (Helmholtz-Zentrum Fuer Infektionsforschung GmbH, priority 2006, dated 2012)
